Experimental data published in US20260130973A1, “COMPOSITIONS AND METHODS FOR DEGRADATION OF LIPOFUSCIN CYCLORETINAL BY MSP1” (THE TEXAS A&M UNIVERSITY SYSTEM, priority 2022, published 2026).

Experiment: in vitro
Type: cell-based
Conditions: human, arpe-19 cells, EC50 (cytotoxicity)
Protocol: The liposomal complexes were prepared as follows. Cycloretinal (10 mg), β-Ionone (20 mg), and 2,4-Dimethylbenzaldehyde (20 mg) were dissolved separately in ethanol (1 mL). Glyoxal (5.80 mg), methylglyoxal (7.21 mg), and β-cyclocitral (15.2 mg) were dissolved separately in chloroform (1 mL). A liposome solution of cholesterol (112 mg), Tween 80 (504 mg), and L-α-phosphatidylcholine (730 mg) were dissolved in 16 mL of chloroform. Liposome solution (2 mL) was added to each of the compounds. The solvents were removed under vacuum and charged with nitrogen. Each of the flasks were then mixed with 5 mL of water and stirred at 60° C. for 1 h. Each solution was placed on ice and sonicated with a probe sonicator (15 seconds on/15 seconds off) for 5 min. The solutions were centrifuged at 11,000×g for 30 min and filtered through a 0.2 μm filter. Each sample (10 μL) was added to 1 mL ethanol and measured by absorption via UV-Vis spectroscopy. […]
Following 24 hour incubation with the liposomal complexes, light induced cell damage was measured by exposing cells to 10 min of irradiation (70 W lamp) through a 430 nm bandpass filter (Thor labs, 430±2 nm). […]
Cell viability was assessed with the MTT cell proliferation assay. […] The absorbance was subsequently evaluated at 570 nm utilizing a microplate reader (quant absorbance plate reader, BioTek Instruments Inc.) […]

## CC(C=CC1=C(C)CCCC1(C)C)=CC=CC1=CC=C(C=O)C(C)(C=CC=C(C)C=CC2=C(C)CCCC2(C)C)C1 (stereo not shown) [cycloretinal]
  CC50 at 24 h: 93 ± 6.1 µM
